Reference: patent US20260194517A1, “FRUCTOSE-1,6-DIPHOSPHATE OPTICAL PROBE, AND PREPARATION METHOD THEREFOR AND USE THEREOF” (EAST CHINA UNIVERSITY OF SCIENCE AND TECHNOLOGY, priority 2022, published 2026)

test system: not listed separately; assay: Screening of linker-mutated cpYFP optical probes for response to fructose-1,6-bisphosphate; format: biochemical; conditions: linker mutants of CggR(88-340)-cpYFP; 485 nm/420 nm signal ratio of sample relative to control
From the text: The invention also provides use of fructose-1,6-bisphosphate optical probes in real-time localization, quantitative detection and high-throughput compound screening of fructose-1,6-bisphosphate. In one aspect, the fructose-1,6-bisphosphate optical probe, preferably linked with signal peptides at different parts of the cell, is transferred into cells for real-time localization of fructose-1,6-bisphosphate by detecting the strength of fluorescence signals in cells, corresponding quantitative detection of fructose-1,6-bisphosphate is performed by a fructose-1,6-bisphosphate standard titration curve. […] In the embodiment involving cpYFP, the ratio is the ratio of the ratio of the sample's 485-nanometer fluorescence signal to the 420-nanometer fluorescence signal to the corresponding ratio of the control. The fructose-1,6-bisphosphate standard titration curve of the present invention is drawn based on the fluorescence signal of the fructose-1,6-bisphosphate optical probe under different concentrations of fructose-1,6-bisphosphate. The fructose-1,6-bisphosphate optical probe described herein is directly transferred into cells, which is more accurate without time-consuming sample processing process during the real-time localization and quantitative detection of fructose-1,6-bisphosphate. When the fructose-1,6-bisphosphate optical probe of the present invention is used for high-throughput compound screening, different compounds are added to the cell culture fluid, and the change of fructose-1,6-bisphosphate content is measured, so as to screen out compounds that affect the change of fructose-1,6-bisphosphate content.
• 1. An expression vector (such as a pCDF-based fructose-1,6-bisphosphate optical probe expression vector) was transform into BL21 (DE3) cells, and invert-cultured overnight, and clones were picked from the plate into a 250 ml Erlenmeyer flask, and placed in a 37° C. shaker, cultured at 220 rpm to OD=0.4-0.8, add 1/1000 (v/v) IPTG (1 M), and induced expression at 18° C. for 24-36 h. • 2. After induction, cells were harvested by centrifugation at 4000 rpm for 30 min, resuspended in 50 mM phosphate buffer and disrupted ultrasonically until the broth were clear, centrifuged at 9600 rpm at 4° C. for 20 min. • 3. The centrifuged supernatant was purified by a self-packed nickel-column affinity chromatography column to obtain the protein, and the protein after nickel-column affinity chromatography was then passed through a self-packed desalting column to obtain the protein dissolved in 100 mM HEPES buffer (pH 7.4). • 4. After the purified protein was identified by SDS-PAGE, the probe was diluted with assay buffer (100 mM HEPES, 100 mM NaCl, pH 7.4) into a protein solution with a final concentration of 0.2-5 μM. Fructose-1,6-bisphosphate was prepared as a stock solution at a final concentration of 50 mM with assay buffer (100 mM HEPES, 100 mM NaCl, pH 7.4). • 5. 100 μl of 1 μM protein solution was taken and incubated at 37° C. for 10 min, […], and measured the fluorescence intensity of the protein at 528 nm after excitation at 420 nm and fluorescence intensity of the protein at 528 nm after excitation at 485 nm. The fluorescence excitation and emission measurement of the samples were completed by a multifunctional fluorescence microplate reader. • 6.100 μl of 1 μM protein solution was taken, incubated at 37° C. for 10 min, tryptophan was added, and measured the absorption and fluorescence spectra of the protein. The determination of the absorption spectrum and fluorescence spectrum of the sample was completed by a spectrophotometer and a fluorescence spectrophotometer.
Optical probe mutants were constructed based on PCDF-CggR(88-340)-176/177-CPYFP, PCDF-CggR(88-340)-176/178-CPYFP, PCDF-CggR(88-340)-177/181-CPYFP, PCDF-CggR(88-340)-179/180-CPYFP, PCDF-CggR(88-340)-182/184-CPYFP, PCDF-CggR(88-340)-182/185-CPYFP, PCDF-CggR(88-340)-203/206-CPYFP, PCDF-CggR(88-340)-203/207-CPYFP and PCDF-CggR-203/208(88-340)-CPYFP. […]

Point of comparison: “Serial number 7: cpYFP at 176/177 of CggR(88-340); CggR: G177M/L178N/Q185A; SEQ ID NO: 11”, “Standardized fluorescence signal ratio” value 4. Against it:
- Serial number 4: cpYFP at 176/177 of CggR(88-340); CggR: G177M/L178N; SEQ ID NO: 10 — higher, 4.54
- Serial number 8: cpYFP at 176/177 of CggR(88-340); CggR: G177M/L178N/Q185T; SEQ ID NO: 12 — the same, 4
- Serial number 9: cpYFP at 176/177 of CggR(88-340); CggR: G177M/L178N/Q185D; SEQ ID NO: 13 — higher, 4.17
- Serial number 16: cpYFP at 182/184 of CggR(88-340); CggR: N184V/Q185P/D181E/V182G/G177L CPYFP: Y1V; SEQ ID NO: 14 — higher, 11.6
- Serial number 17: cpYFP at 182/184 of CggR(88-340); CggR: N184V/Q185P/D181E/V182G/G177L CPYFP: Y1I; SEQ ID NO: 15 — higher, 12
- Serial number 20: cpYFP at 182/184 of CggR(88-340); CggR: N184V/Q185P/D181E/V182G CPYFP: Y1V; SEQ ID NO: 16 — higher, 9.6

test system: H1299 cells; assay: Dynamic monitoring of cytoplasmic fructose-1,6-bisphosphate in H1299 cells expressing the optical probe; format: cell-based; conditions: 0.5 mM 3-BrPA in HBSS, 30-min period, H1299 cells with cytoplasm-expressed probe
Method: • 1. The pCDNA3.1+-based fructose-1,6-bisphosphate optical probe plasmid was transfected into HEK293 cells by the transfection reagent Lipofectamine2000 (Invitrogen), and cultured in a cell incubator at 37° C., 5% CO2. Fluorescence detection was performed 24-36 h after the exogenous gene was fully expressed. • 2. After induction of expression, adherent HEK293 cells were washed three times with PBS and placed in HBSS solution for fluorescence microscopy and microplate reader assays, respectively.
After H1299 cells were transfected with the cytoplasm-expressed optical probe plasmid for 36 h, they were washed with PBS and placed in HBSS solutions containing 0 mM 3-BrPA and 0.5 mM 3-BrPA, and the changes in the ratio of the fluorescence intensity at 528 nm emission and at 420 nm excitation and the fluorescence intensity at 528 nm emission at 485 nm excitation were detected over a 30-min period.

With O=C(O)C(=O)CBr [3-BrPA] the “ratio of 420/485, maximum relative to the initial value” was 3.7 times the initial value.
